Test results: US7834172B2, “Composition comprising at least one nucleosidic moiety as a therapeutic agent, and CKC” (Novagali Pharma SA, priority 2007, dated 2010)

Assay: CKC/oligonucleotide complex formation, observation of precipitation
Assay type: physicochemical
Settings: SEQ ID No. 2 solution 10 μM
Text: CKC/Oligonucleotides complexes are formed due to the interaction of the CKC positive charges with the oligonucleotides negative charges conferred by each of the bases (18 in the case of SEQ ID No.2). The complex formation has the effect of neutralizing part of the negative charges of the oligonucleotides and to bring some lipophilic moieties to the complex. A stable complex with a balanced lipophilicity enhances the oligonucleotide penetration in the cells due to the affinity with the lipophilic cell membranes.
Stable complexes are formed without precipitation at ratios below 10/18 (CKC/oligonucleotide negative charges, the few lipophilic moieties being unable to induce the precipitation.

## SEQ ID No. 2: 18 mer-phosphorotioate oligonucleotide, 5′-3′ sequence ACT CAT ATT CAT AGG GTG (DNA ACTCATATTCATAGGGTG; all phosphorothioate, sugars by position and methylation of C not given here; further chemistry not fully specified)
Ratio CKC/negative charges 0.05, CKC 10 μM
  Observation (precipitation): No precipitation
Ratio CKC/negative charges 0.27, CKC 50 μM
  Observation (precipitation): No precipitation
Ratio CKC/negative charges 0.55, CKC 100 μM
  Observation (precipitation): No precipitation
Ratio CKC/negative charges 0.83, CKC 150 μM
  Observation (precipitation): ↓
Ratio CKC/negative charges 1.11, CKC 200 μM
  Observation (precipitation): ↓
Ratio CKC/negative charges 1.66, CKC 300 μM
  Observation (precipitation): ↓
Ratio CKC/negative charges 2.22, CKC 400 μM
  Observation (precipitation): ↓
Ratio CKC/negative charges 2.77, CKC 500 μM
  Observation (precipitation): ↓
Ratio CKC/negative charges 4.17, CKC 750 μM
  Observation (precipitation): ↓↓
Ratio CKC/negative charges 5.55, CKC 1000 μM
  Observation (precipitation): ↓↓↓
Ratio CKC/negative charges 55.55, CKC 10000 μM
  Observation (precipitation): ↓↓↓
